A short description of series [1]: Inhibition of Bordetella pertussis Adenylate cyclase toxin in mouse J774.A1 cells preincubated for 5 hrs followed by ACT addition and measured after 30 mins by CatchPointcAMP immunoassay method. It counts as cell-based.
Series [2] can be described thus: Cytotoxicity against mouse J774.A1 cells assessed as cell viability at 10 uM incubated for 5 hrs by Cell Titer-Glo Luminescent Cell Viability assay relative to control. It counts as toxicity, cell-based. The conditions noted are these: read-out: Activity. In general terms: Cellular ATP, detected with luciferase, serves as a proxy for viable cell number.
The subject of the next series is HEK293. Briefly: Cytotoxicity against AC1 expressed HEK293 cells by CellTiter-Glo 2.0 assay relative to control. The conditions noted are these: human. The series is classed as toxicity, cell-based. Also noted: concentration or dose not given beside the values.
The next series concerns NHDF. The series is described as follows: Cytotoxicity against human NHDF cells by CellTiter-Glo 2.0 assay. It counts as toxicity, cell-based.
Another series deals with HL-60. The series is described as follows: Cytotoxicity against human HL-60 cells by CellTiter-Glo 2.0 assay. The series is classed as functional, cell-based.
Another series deals with HeLa S3. The series is described as follows: Cytotoxicity against human HeLa S3 cells by CellTiter-Glo 2.0 assay. It counts as functional, cell-based.
The test system of a further series is CCRF-CEM. Briefly: Cytotoxicity against human CCRF-CEM cells by CellTiter-Glo 2.0 assay. The series is classed as functional, cell-based.
The subject of a further series is HepG2. The series is described as follows: Cytotoxicity against human HepG2 cells by CellTiter-Glo 2.0 assay. It counts as functional, cell-based.

What is called IC50 is the concentration that inhibits the measured activity by half. Take `C=C(C)c1cn(CCOCP(=O)(N[C@@H](Cc2ccccc2)C(=O)OC(C)C)N[C@@H](Cc2ccccc2)C(=O)OC(C)C)c2ncnc(N)c12`: the IC50 in series [1] is over 10 µM; with NHDF it was over 10 µM; with HL-60 it was 4.62 µM; with HeLa S3, over 10 µM; in the series with CCRF-CEM it was 5.64 µM; with HepG2, 8.73 µM. Besides, in series [2], the viability at 5 h, 10 µM is 81%. Further, in the series with HEK293, the Activity is 31%.

`CC(C)OC(=O)[C@H](Cc1ccccc1)NP(=O)(COCCn1cc(C(C)C)c2c(N)ncnc21)N[C@@H](Cc1ccccc1)C(=O)OC(C)C`: the IC50 in series [1] is over 10 µM; in the series with NHDF, over 10 µM; in the series with HL-60 it was 7.34 µM; in the series on HeLa S3, over 10 µM; in the series with CCRF-CEM it was 6.54 µM; with HepG2, over 10 µM. Further, the viability at 5 h, 10 µM in series [2] amounted to 121%. Moreover, the Activity in the series on HEK293 worked out at 51%.

Regarding `CC(C)OC(=O)[C@H](Cc1ccccc1)NP(=O)(COCCn1cc(-c2cccc(C(N)=O)c2)c2c(N)ncnc21)N[C@@H](Cc1ccccc1)C(=O)OC(C)C`, the IC50 in series [1] was 2.5 µM; in the series with NHDF it was over 10 µM; in the series with HL-60 it was 5.75 µM; in the series on HeLa S3 it was over 10 µM; in the series with CCRF-CEM it was over 10 µM; with HepG2 it was over 10 µM. Moreover, the viability at 5 h, 10 µM in series [2] came out at 85%. Also, the Activity in the series with HEK293 is recorded as 94%.

In the case of `CC(C)OC(=O)[C@H](Cc1ccccc1)NP(=O)(COCCn1cc(-c2cccc(C#N)c2)c2c(N)ncnc21)N[C@@H](Cc1ccccc1)C(=O)OC(C)C`, the 50% inhibitory concentration (IC50) in series [1] was 1.42 µM; in the series with NHDF, over 10 µM; in the series on HL-60, 3.22 µM; in the series with HeLa S3, 10.1 µM; in the series on CCRF-CEM, 3.85 µM; in the series on HepG2 it was 9.43 µM. Besides, the viability at 5 h, 10 µM in series [2] was 111%. Further, the Activity in the series with HEK293 is 29%.

As for `CC(C)OC(=O)[C@H](Cc1ccccc1)NP(=O)(COCCn1cc(-c2ccccc2)c2c(N)ncnc21)N[C@@H](Cc1ccccc1)C(=O)OC(C)C`, the IC50 in series [1] is 13.3 µM; with NHDF it was over 10 µM; in the series with HL-60, 4.73 µM; with HeLa S3, 5.28 µM; with CCRF-CEM, 4.74 µM; in the series on HepG2, 6.58 µM. Moreover, in series [2], the viability at 5 h, 10 µM worked out at 82%. Moreover, the Activity in the series with HEK293 is recorded as -18%.

For `CC(C)OC(=O)[C@H](Cc1ccccc1)NP(=O)(COCCn1cc(-c2ccc([N+](=O)[O-])cc2)c2c(N)ncnc21)N[C@@H](Cc1ccccc1)C(=O)OC(C)C`, the half-maximal inhibitory concentration (IC50) in series [1] was 1.26 µM; in the series with NHDF, over 10 µM; with HL-60 it was 4.58 µM; in the series on HeLa S3 it was 2.95 µM; in the series on CCRF-CEM it was 4.08 µM; in the series on HepG2, over 10 µM. Also, in series [2], the viability at 5 h, 10 µM amounted to 113%. Moreover, in the series with HEK293, the Activity worked out at 97%.

Consider `CCOC(=O)[C@H](C)NP(=O)(COCCn1cc(-c2ccc(OC)cc2)c2c(N)ncnc21)Oc1ccccc1` (stereo partly drawn), for which the IC50 in series [1] was 5.41 µM; in the series with NHDF, over 10 µM; with HL-60, over 10 µM; with HeLa S3, over 10 µM; in the series on CCRF-CEM it was over 10 µM; in the series with HepG2, over 10 µM. For the same compound, the viability at 5 h, 10 µM in series [2] came out at 104%.

Turning to `CC(C)OC(=O)[C@H](Cc1ccccc1)NP(=O)(COCCn1cc(-c2ccccn2)c2c(N)ncnc21)N[C@@H](Cc1ccccc1)C(=O)OC(C)C`, the IC50 in series [1] was 1.06 µM; in the series with NHDF it was over 10 µM; in the series with HL-60, 5.18 µM; in the series with HeLa S3, 7.86 µM; with CCRF-CEM, 5.77 µM; with HepG2, over 10 µM. In addition, in series [2], the viability at 5 h, 10 µM stood at 104%. Besides, the Activity in the series on HEK293 is recorded as -17%.

As to `CC(C)OC(=O)[C@H](Cc1ccccc1)NP(=O)(COCCn1cc(-c2cccc(-c3nn[nH]n3)c2)c2c(N)ncnc21)N[C@@H](Cc1ccccc1)C(=O)OC(C)C`, the half-inhibitory concentration (IC50) (in series [1]; in the series on NHDF; with HL-60; in the series with HeLa S3; in the series on CCRF-CEM; with HepG2) was over 10 µM throughout. In series [2], the viability at 5 h, 10 µM is 94%. Moreover, in the series on HEK293, the Activity was found to be 110%.

On to `COc1ccc(-c2cn(CCOCP(=O)(N[C@@H](Cc3ccccc3)C(=O)OC(C)C)N[C@@H](Cc3ccccc3)C(=O)OC(C)C)c3ncnc(N)c23)cc1`, for which the half-maximal inhibitory concentration (IC50) in series [1] is 1.49 µM; with NHDF, over 10 µM; in the series with HL-60, 6.52 µM; in the series with CCRF-CEM, 5.81 µM; with HepG2 it was over 10 µM. Besides, the viability at 5 h, 10 µM in series [2] was found to be 112%. In addition, the Activity in the series on HEK293 is -17%.

Consider `Cc1cn(CCOCP(=O)(N[C@@H](Cc2ccccc2)C(=O)OC(C)C)N[C@@H](Cc2ccccc2)C(=O)OC(C)C)c2ncnc(N)c12`, for which the concentration for half-maximal inhibition (IC50) was 1.47 µM in series [1]; over 10 µM in the series with NHDF; 7.33 µM in the series with HL-60; over 10 µM in the series on HeLa S3; over 10 µM in the series on CCRF-CEM; 9.73 µM in the series with HepG2. Moreover, in series [2], the viability at 5 h, 10 µM turned out to be 112%. Also, in the series with HEK293, the Activity stood at 93%.

Regarding `CC(C)OC(=O)[C@H](Cc1ccccc1)NP(=O)(COCCn1cc(-c2cccs2)c2c(N)ncnc21)N[C@@H](Cc1ccccc1)C(=O)OC(C)C`, the viability at 5 h, 10 µM in series [2] is 36%. The Activity with HEK293 is on record as -9%. Further, the IC50 in the series on NHDF was determined as 0.4 µM; in the series with HL-60 it was 0.56 µM; in the series with HeLa S3 it was 1.09 µM; in the series on CCRF-CEM, 0.79 µM; in the series with HepG2 it was 1.02 µM.

Turning to `CC(C)OC(=O)[C@H](Cc1ccccc1)NP(=O)(COCCn1cc(-c2cccc(C(=O)O)c2)c2c(N)ncnc21)N[C@@H](Cc1ccccc1)C(=O)OC(C)C`, the IC50 in series [1] was 6.09 µM; with NHDF it was over 10 µM; with HL-60, over 10 µM; with HeLa S3 it was over 10 µM; in the series with CCRF-CEM, over 10 µM; in the series with HepG2, over 10 µM. Besides, the viability at 5 h, 10 µM in series [2] was 104%. Also, in the series with HEK293, the Activity is 115%.

As to `CC(C)OC(=O)[C@H](Cc1ccccc1)NP(=O)(COCCn1cc(-c2cccc(S(N)(=O)=O)c2)c2c(N)ncnc21)N[C@@H](Cc1ccccc1)C(=O)OC(C)C`, the IC50 in series [1] was 3.41 µM; with NHDF, over 10 µM; in the series with HL-60, 4.8 µM; with HeLa S3, over 10 µM; in the series on CCRF-CEM it was 5.56 µM; in the series on HepG2, over 10 µM. Moreover, the viability at 5 h, 10 µM in series [2] came to 114%. For the same compound, the Activity with HEK293 worked out at 110%.

Consider `CC(C)OC(=O)[C@H](Cc1ccccc1)NP(=O)(COCCn1cc(-c2ccco2)c2c(N)ncnc21)N[C@@H](Cc1ccccc1)C(=O)OC(C)C`, for which the viability at 5 h, 10 µM in series [2] turned out to be 43%. Further, the Activity in the series with HEK293 was -9%. For the same compound, the IC50 was determined as 0.35 µM in the series with NHDF; 0.66 µM with HL-60; 1.29 µM in the series with HeLa S3; 0.99 µM with CCRF-CEM; 0.99 µM in the series on HepG2.

With `CC(C)OC(=O)[C@H](Cc1ccccc1)NP(=O)(COCCn1cc(-c2cncnc2)c2c(N)ncnc21)N[C@@H](Cc1ccccc1)C(=O)OC(C)C`, the concentration for half-maximal inhibition (IC50) (in series [1]; with NHDF; with HL-60; with HeLa S3; in the series on CCRF-CEM; with HepG2) was over 10 µM throughout. The viability at 5 h, 10 µM in series [2] came out at 128%. Also, the Activity in the series on HEK293 came to 102%.

On to `COc1ccc(-c2cn(CCOCP(=O)(OCOC(=O)C(C)(C)C)OCOC(=O)C(C)(C)C)c3ncnc(N)c23)cc1`, for which the half-inhibitory concentration (IC50) in series [1] was 10.2 µM; in the series on NHDF, over 10 µM; in the series with HL-60 it was over 10 µM; in the series on HeLa S3, over 10 µM; in the series on CCRF-CEM, over 10 µM; in the series on HepG2, over 10 µM. In series [2], the viability at 5 h, 10 µM amounted to 85%.

Turning to `CC(C)OC(=O)[C@H](Cc1ccccc1)NP(=O)(COCCn1cc(-c2cccc(NS(C)(=O)=O)c2)c2c(N)ncnc21)N[C@@H](Cc1ccccc1)C(=O)OC(C)C`, the IC50 in series [1] was 2.95 µM; with NHDF, over 10 µM; in the series on HL-60, 7.08 µM; in the series with HeLa S3, 15.2 µM; with CCRF-CEM, 6.92 µM; with HepG2, over 10 µM. Besides, the viability at 5 h, 10 µM in series [2] amounted to 87%. Further, in the series with HEK293, the Activity is reported as 98%.

On to `COc1cccc(-c2cn(CCOCP(=O)(N[C@@H](Cc3ccccc3)C(=O)OC(C)C)N[C@@H](Cc3ccccc3)C(=O)OC(C)C)c3ncnc(N)c23)c1`, for which the IC50 was 4.8 µM in series [1]; over 10 µM in the series on NHDF; 5.47 µM in the series with HL-60; 9.16 µM with HeLa S3; 4.85 µM in the series with CCRF-CEM; 13.9 µM in the series with HepG2. Moreover, the viability at 5 h, 10 µM in series [2] is 94%. Besides, the Activity in the series on HEK293 was -14%.

Regarding `COc1ccccc1-c1cn(CCOCP(=O)(N[C@@H](Cc2ccccc2)C(=O)OC(C)C)N[C@@H](Cc2ccccc2)C(=O)OC(C)C)c2ncnc(N)c12`, the concentration for half-maximal inhibition (IC50) was 2.17 µM in series [1]; over 10 µM with NHDF; 6.61 µM in the series with HL-60; 3.65 µM in the series with HeLa S3; 6.2 µM in the series with CCRF-CEM; 4.57 µM in the series with HepG2. Besides, the viability at 5 h, 10 µM in series [2] was determined as 112%. Also, the Activity with HEK293 is -12%.

Regarding `C#Cc1cn(CCOCP(=O)(N[C@@H](Cc2ccccc2)C(=O)OC(C)C)N[C@@H](Cc2ccccc2)C(=O)OC(C)C)c2ncnc(N)c12`, the IC50 in series [1] is over 10 µM; with NHDF, over 10 µM; in the series on HL-60, 6.46 µM; with HeLa S3, over 10 µM; in the series on CCRF-CEM, 5.77 µM; with HepG2 it was 7.9 µM. In series [2], the viability at 5 h, 10 µM was 129%. In the series with HEK293, the Activity is 85%.

(Values after ChEMBL document CHEMBL5390272, “Discovery of a potent and selective human AC2 inhibitor based on 7-deazapurine analogues of adefovir” (Bioorg Med Chem, 2023).)
